Results from patent US12649723B2, “Carbonohydrazonoyl dicyanide compounds comprising 2 or more aryl or heteroaryl connected via linker and use thereof” (KOREA INSTITUTE OF SCIENCE AND TECHNOLOGY, priority 2020, dated 2026).

Experiments:
[1] = Liver microsome stability; type: in vitro ADME, dog; details: amount of substrate remaining; compound 1 μM, 30 minutes, 37° C., NADPH
Description: The stability of liver microsomes due to the compounds prepared according to Examples 1 to 175 was confirmed. Specifically, four types of liver microsomes (human, dog, rat, and mouse, each 0.25 mg/mL), a 0.1 M phosphate buffer solution (pH 7.4), and each of the compounds at a concentration of 1 μM were mixed and pre-cultured at 37° C. for 5 minutes and further cultured at 37° C. for 30 minutes together with an NADPH generation system solution added thereto. Thereafter, the reaction was terminated by adding an acetonitrile solution containing an internal standard material (chloropropamide) and centrifuged for 5 minutes (14,000 rpm, 4° C.), and then a supernatant was injected into an LC-MS/MS system for analysis of substrate drugs to thereby evaluate metabolic stability due to 8 types of compounds.
The amount of the substrate remaining after the reaction was analyzed using the Shimadzu Nexera XR system and TSQ Vantage (Thermo). In an HPLC column, Kinetex XB-C18 (2.1 mm×100 mm, particle size of 2.6 μm; Phenomenex, USA) was used, and mobile phases were (A) distilled water containing 0.1% formic acid and (B) acetonitrile containing 0.1% formic acid. Analyst software (version 1.6.3) and Xcalibur (version 1.6.1) were used for data analysis.

[2] = Liver microsome stability; type: in vitro ADME, human; details: amount of substrate remaining; compound 1 μM, 30 minutes, 37° C., NADPH
Procedure, shortened: (§1)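 Human, dog, rat and mouse liver microsomes (0.25 mg/mL) with 1 μM compound in 0.1 M phosphate buffer pH 7.4, preincubated 5 min at 37° C, then incubated 30 min at 37° C with NADPH-generating system. Reaction stopped with acetonitrile containing internal standard; remaining parent quantified by LC-MS/MS.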

[3] = Liver microsome stability; type: in vitro ADME, mouse; details: amount of substrate remaining; compound 1 μM, 30 minutes, 37° C., NADPH
Procedure, shortened: as §1

tau protein = biological target: T1, tau protein (Homo sapiens, UniProt P10636); assay: Tau-BiFC cell model: inhibition of tau protein aggregation; type: cell-based; details: for remaining activity at 10 µM: 48 h, compound 10 μM, BiFC fluorescence, Forskolin-only group = 100% tau protein-aggregated state, read-out: Response (% @10 μM); for IC50: Tau BiFC in cells, with Forskolin 30 μM, 48 hours
T1 construct: fused on or other part: Split fluorescent-protein halves for BiFC are fused to tau; In the published tau-BiFC line these are Venus VN173 and VC155
Procedure, shortened: (§2)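 Aggregation was induced by 30 μM Forskolin co-applied with test compound for 48 h, with screening at 1, 3, 10 μM and dose-response at 0.03–30 μM. Nuclei were stained with Hoechst (2 μg/mL) and counted against Forskolin-only wells for cytotoxicity. Inhibition came from BiFC fluorescence relative to Forskolin-only versus untreated cells, with IC50 by nonlinear regression.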

CYP1A2 = biological target: T2, CYP1A2 (Homo sapiens, UniProt P05177); assay: Inhibitory effect on CYP coenzyme activity, human liver microsomes; type: in vitro ADME; details: compound 10 μM; human liver microsomes 0.25 mg/mL; substrate phenacetin; 15 minutes
T2 construct: human liver microsomes (0.25 mg/mL); from tissue; host or cells: human liver microsomes
T2 sequence (P05177 1-516): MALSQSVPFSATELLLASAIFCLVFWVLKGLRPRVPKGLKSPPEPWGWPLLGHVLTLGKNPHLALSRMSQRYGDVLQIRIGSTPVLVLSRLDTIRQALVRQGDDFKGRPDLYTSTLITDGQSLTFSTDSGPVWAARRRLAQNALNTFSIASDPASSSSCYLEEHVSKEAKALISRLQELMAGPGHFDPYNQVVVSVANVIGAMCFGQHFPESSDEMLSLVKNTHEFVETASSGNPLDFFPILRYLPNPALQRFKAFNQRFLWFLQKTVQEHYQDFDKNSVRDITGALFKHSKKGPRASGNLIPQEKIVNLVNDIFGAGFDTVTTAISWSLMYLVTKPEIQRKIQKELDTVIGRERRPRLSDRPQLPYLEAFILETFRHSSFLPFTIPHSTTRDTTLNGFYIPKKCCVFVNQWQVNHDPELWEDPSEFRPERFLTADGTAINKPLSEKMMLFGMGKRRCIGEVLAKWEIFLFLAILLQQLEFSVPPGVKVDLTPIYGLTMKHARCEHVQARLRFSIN
Procedure, shortened: (§3)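 Read-out is LC-MS/MS (MRM) quantification of marker metabolites, compared between 10 μM compound and vehicle (0 μM). Microsomes (0.25 mg/mL, pH 7.4 phosphate) carried a five-probe cocktail including diclofenac 10 μM, S-mephenytoin 100 μM, dextromethorphan 5 μM and midazolam 2.5 μM, and were incubated 15 min at 37 °C with NADPH.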

CYP2C9 = biological target: T3, CYP2C9 (Homo sapiens, UniProt P11712); assay: as above; type: in vitro ADME; details: compound 10 μM; human liver microsomes 0.25 mg/mL; substrate diclofenac; 15 minutes
T3 construct: human liver microsomes (0.25 mg/mL); from tissue; host or cells: human liver microsomes
Procedure, shortened: as §3

CYP2D6 = biological target: T4, CYP2D6 (Homo sapiens, UniProt P10635); assay: as above; type: in vitro ADME; details: compound 10 μM; human liver microsomes 0.25 mg/mL; substrate dextromethorphan; 15 minutes
T4 construct: human liver microsomes (0.25 mg/mL); from tissue; host or cells: human liver microsomes
Procedure, shortened: as §3

CYP3A4 = biological target: T5, CYP3A4 (Homo sapiens, UniProt P08684); assay: as above; type: in vitro ADME; details: compound 10 μM; human liver microsomes 0.25 mg/mL; substrate midazolam; 15 minutes
T5 construct: human liver microsomes (0.25 mg/mL); from tissue; host or cells: human liver microsomes
Procedure, shortened: as §3

CYP2C19 = biological target: T6, CYP2C19 (Homo sapiens, UniProt P33261); assay: as above; type: in vitro ADME; details: compound 10 μM; human liver microsomes 0.25 mg/mL; substrate S-mephenytoin; 15 minutes
T6 construct: human liver microsomes (0.25 mg/mL); from tissue; host or cells: human liver microsomes
Procedure, shortened: as §3

Tau-BiFC cells = assay: Cell viability (cytotoxicity) in tau-BiFC cells, count of stained nuclei; type: cell-based; details: compound 10 μM; Forskolin-only group = 100% cell viability
Procedure, shortened: as §2

[4] = Liver microsome stability; type: in vitro ADME, rat; details: amount of substrate remaining; compound 1 μM, 30 minutes, 37° C., NADPH
Procedure, shortened: as §1

T5 sequence (P08684 whole entry): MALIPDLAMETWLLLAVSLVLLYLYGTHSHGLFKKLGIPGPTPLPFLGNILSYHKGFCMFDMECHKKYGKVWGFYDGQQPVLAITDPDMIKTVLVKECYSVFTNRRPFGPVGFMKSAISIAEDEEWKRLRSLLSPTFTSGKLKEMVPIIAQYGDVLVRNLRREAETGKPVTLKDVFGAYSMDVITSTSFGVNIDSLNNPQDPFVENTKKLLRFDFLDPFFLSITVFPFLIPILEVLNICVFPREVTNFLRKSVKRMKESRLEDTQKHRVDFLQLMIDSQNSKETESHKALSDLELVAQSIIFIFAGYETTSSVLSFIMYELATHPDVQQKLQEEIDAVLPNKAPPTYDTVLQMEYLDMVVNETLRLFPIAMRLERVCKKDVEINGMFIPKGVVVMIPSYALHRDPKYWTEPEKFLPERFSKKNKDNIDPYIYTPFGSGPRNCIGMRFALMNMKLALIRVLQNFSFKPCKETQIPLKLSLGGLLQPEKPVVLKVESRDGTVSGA
T1 sequence (P10636 2-441 isoform P10636-8 limits assumed): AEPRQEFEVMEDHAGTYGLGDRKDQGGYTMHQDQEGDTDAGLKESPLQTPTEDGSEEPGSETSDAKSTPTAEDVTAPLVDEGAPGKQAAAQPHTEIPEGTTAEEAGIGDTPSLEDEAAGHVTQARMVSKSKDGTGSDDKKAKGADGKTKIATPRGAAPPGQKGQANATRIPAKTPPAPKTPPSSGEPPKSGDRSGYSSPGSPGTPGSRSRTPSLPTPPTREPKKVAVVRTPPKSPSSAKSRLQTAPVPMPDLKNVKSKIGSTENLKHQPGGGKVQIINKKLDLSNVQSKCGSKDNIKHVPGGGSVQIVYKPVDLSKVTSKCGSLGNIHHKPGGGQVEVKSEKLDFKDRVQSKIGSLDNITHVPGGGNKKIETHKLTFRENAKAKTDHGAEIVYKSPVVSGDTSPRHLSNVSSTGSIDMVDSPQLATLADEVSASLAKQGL
T6 sequence (P33261 whole entry): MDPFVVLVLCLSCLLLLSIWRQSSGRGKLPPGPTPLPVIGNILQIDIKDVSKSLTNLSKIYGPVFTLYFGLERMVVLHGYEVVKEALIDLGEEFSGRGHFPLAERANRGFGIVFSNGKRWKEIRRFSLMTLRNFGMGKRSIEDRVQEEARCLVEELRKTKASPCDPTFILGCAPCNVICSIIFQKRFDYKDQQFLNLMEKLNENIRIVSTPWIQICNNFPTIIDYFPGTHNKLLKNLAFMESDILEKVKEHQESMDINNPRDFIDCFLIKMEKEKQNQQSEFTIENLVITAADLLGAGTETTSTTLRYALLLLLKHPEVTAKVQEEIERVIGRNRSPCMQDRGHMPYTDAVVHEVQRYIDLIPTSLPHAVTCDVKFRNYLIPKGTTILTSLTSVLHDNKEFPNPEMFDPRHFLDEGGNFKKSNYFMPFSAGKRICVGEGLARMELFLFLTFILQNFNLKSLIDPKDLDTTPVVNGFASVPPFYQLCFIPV
T3 sequence (P11712 whole entry): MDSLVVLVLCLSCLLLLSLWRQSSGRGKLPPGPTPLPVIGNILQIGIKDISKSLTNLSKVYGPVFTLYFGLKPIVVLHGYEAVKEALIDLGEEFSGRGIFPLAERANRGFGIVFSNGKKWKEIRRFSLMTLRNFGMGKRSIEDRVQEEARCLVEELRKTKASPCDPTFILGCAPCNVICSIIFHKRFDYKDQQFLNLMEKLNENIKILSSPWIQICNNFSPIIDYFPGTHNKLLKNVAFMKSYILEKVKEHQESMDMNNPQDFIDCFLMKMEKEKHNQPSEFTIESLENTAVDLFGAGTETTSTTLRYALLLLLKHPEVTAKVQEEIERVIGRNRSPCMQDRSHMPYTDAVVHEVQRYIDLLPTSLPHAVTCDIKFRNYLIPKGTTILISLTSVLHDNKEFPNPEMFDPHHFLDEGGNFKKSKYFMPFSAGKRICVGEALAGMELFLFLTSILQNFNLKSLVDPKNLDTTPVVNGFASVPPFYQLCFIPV
T4 sequence (P10635 whole entry): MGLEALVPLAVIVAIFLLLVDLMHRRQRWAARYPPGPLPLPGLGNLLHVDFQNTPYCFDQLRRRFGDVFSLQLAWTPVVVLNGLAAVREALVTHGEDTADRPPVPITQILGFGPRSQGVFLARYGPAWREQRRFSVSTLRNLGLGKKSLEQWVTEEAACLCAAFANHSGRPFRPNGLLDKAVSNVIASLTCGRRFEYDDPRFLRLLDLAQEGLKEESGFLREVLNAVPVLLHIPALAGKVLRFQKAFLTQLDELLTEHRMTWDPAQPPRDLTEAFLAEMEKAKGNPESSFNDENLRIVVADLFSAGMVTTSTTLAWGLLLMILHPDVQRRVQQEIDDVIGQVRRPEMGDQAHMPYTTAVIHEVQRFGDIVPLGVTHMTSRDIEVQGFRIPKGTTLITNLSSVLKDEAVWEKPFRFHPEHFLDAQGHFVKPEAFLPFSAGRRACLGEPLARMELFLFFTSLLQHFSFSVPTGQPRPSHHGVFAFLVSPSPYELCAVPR

Cc1cnc(C(=O)Nc2ccc(NN=C(C#N)C#N)c(F)c2)cn1 [Compound 3, (2-fluoro-4-(5-methylpyrazine-2-carboxamido)phenyl)carbonohydrazonoyl dicyanide]
Dog (%) [1]: 75.4% | Human (%) [2]: 95.7% | Mouse (%) [3]: 46.1% | remaining activity at 10 µM (tau protein): 0% | IC50 (tau protein): 30 nM | CYP1A2 (CYP1A2): 85.6 | CYP2C9 (CYP2C9): 61.9 | CYP2D6 (CYP2D6): 83.6 | CYP3A4 (CYP3A4): 80.8 | CYP2C19 (CYP2C19): 78.2 | Cell viability (% @10 μM) (Tau-BiFC cells): 62.1% | Rat (%) [4]: 72.6%

N#CC(C#N)=NNc1ccc(NC(=O)c2cccs2)nc1 [Compound 30, (6-(thiophene-2-carboxamido)pyridin-3-yl)carbonohydrazonoyl dicyanide]
Dog (%) [1]: 84.7% | Human (%) [2]: 94.8% | Mouse (%) [3]: 70.7% | remaining activity at 10 µM (tau protein): 0% | IC50 (tau protein): 80 nM | CYP1A2 (CYP1A2): 83.9 | CYP2C9 (CYP2C9): 62.9 | CYP2D6 (CYP2D6): 89.9 | CYP3A4 (CYP3A4): 95.2 | CYP2C19 (CYP2C19): 81.5 | Cell viability (% @10 μM) (Tau-BiFC cells): 145% | Rat (%) [4]: 72.4%

Cc1cnc(C(=O)Nc2ccc(NN=C(C#N)C#N)c(C)c2)cn1 [Compound 6, (2-methyl-4-(5-methylpyrazine-2-carboxamido)phenyl)carbonohydrazonoyl dicyanide]
Dog (%) [1]: >100% | Human (%) [2]: 77.5% | Mouse (%) [3]: 74.8% | remaining activity at 10 µM (tau protein): 43.9% | CYP1A2 (CYP1A2): 85.2 | CYP2C9 (CYP2C9): 38 | CYP2D6 (CYP2D6): 75.7 | CYP3A4 (CYP3A4): 62.2 | CYP2C19 (CYP2C19): 64.8 | Cell viability (% @10 μM) (Tau-BiFC cells): 61.3% | Rat (%) [4]: 88.4%

N#CC(C#N)=NNc1ccc(NC(=O)c2ccc(F)cc2)nc1 [Compound 16, (6-(4-fluorobenzamido)pyridin-3-yl)carbonohydrazonoyl dicyanide]
Dog (%) [1]: 59.5% | Human (%) [2]: 91.6% | Mouse (%) [3]: 67.3% | remaining activity at 10 µM (tau protein): 0% | IC50 (tau protein): 110 nM | CYP1A2 (CYP1A2): 71.4 | CYP2C9 (CYP2C9): 40.3 | CYP2D6 (CYP2D6): 80.8 | CYP3A4 (CYP3A4): 86.9 | CYP2C19 (CYP2C19): 78.6 | Cell viability (% @10 μM) (Tau-BiFC cells): 66.2% | Rat (%) [4]: 61%

Cc1cccc(C(=O)Nc2ccc(NN=C(C#N)C#N)cn2)c1F [Compound 20, (6-(2-fluoro-3-methylbenzamido)pyridin-3-yl)carbonohydrazonoyl dicyanide]
Dog (%) [1]: >100% | Human (%) [2]: 91.9% | Mouse (%) [3]: 68.3% | remaining activity at 10 µM (tau protein): 0% | IC50 (tau protein): 180 nM | CYP1A2 (CYP1A2): 69.4 | CYP2C9 (CYP2C9): 22.3 | CYP2D6 (CYP2D6): 75.8 | CYP3A4 (CYP3A4): 76.1 | CYP2C19 (CYP2C19): 72 | Cell viability (% @10 μM) (Tau-BiFC cells): 110.4% | Rat (%) [4]: 33.7%

Cc1cnc(C(=O)Nc2ccc(NN=C(C#N)C#N)cn2)cn1 [Compound 1, (6-(5-methylpyrazine-2-carboxamido)pyridin-3-yl)carbonohydrazonoyl dicyanide]
Dog (%) [1]: 66.9% | Human (%) [2]: 86.5% | Mouse (%) [3]: 21.2% | remaining activity at 10 µM (tau protein): 0% | IC50 (tau protein): 400 nM | CYP1A2 (CYP1A2): 80.7 | CYP2C9 (CYP2C9): 71.1 | CYP2D6 (CYP2D6): 93.1 | CYP3A4 (CYP3A4): 85 | CYP2C19 (CYP2C19): 74.6 | Cell viability (% @10 μM) (Tau-BiFC cells): 94.3% | Rat (%) [4]: 56.7%

Cc1cncc(NC(=O)c2ccc(NN=C(C#N)C#N)cc2)n1 [Compound 46, (4-(6-methylpyrazin-2-ylcarbamoyl)phenyl)carbonohydrazonoyl dicyanide]
Dog (%) [1]: >100% | Human (%) [2]: >100% | Mouse (%) [3]: >100% | remaining activity at 10 µM (tau protein): 0% | IC50 (tau protein): 860 nM | CYP1A2 (CYP1A2): 97.8 | CYP2C9 (CYP2C9): 70.4 | CYP2D6 (CYP2D6): >100 | CYP3A4 (CYP3A4): 85.5 | CYP2C19 (CYP2C19): 83.1 | Cell viability (% @10 μM) (Tau-BiFC cells): 155% | Rat (%) [4]: 86.3%

Cc1cnc(NC(=O)c2ccc(NN=C(C#N)C#N)cc2)cn1 [Compound 45, (4-(5-methylpyrazin-2-ylcarbamoyl)phenyl)carbonohydrazonoyl dicyanide]
Dog (%) [1]: >100% | Human (%) [2]: 96.8% | Mouse (%) [3]: >100% | remaining activity at 10 µM (tau protein): 0% | IC50 (tau protein): 1180 nM | CYP1A2 (CYP1A2): 95.5 | CYP2C9 (CYP2C9): 80.8 | CYP2D6 (CYP2D6): >100 | CYP3A4 (CYP3A4): 96.7 | CYP2C19 (CYP2C19): 83.4 | Cell viability (% @10 μM) (Tau-BiFC cells): 140.5% | Rat (%) [4]: >100%
